Experimental data as given in ChEMBL document CHEMBL5291721, “A preclinical secondary pharmacology resource illuminates target-adverse drug reaction associations of marketed drugs” (Nat Commun, 2023).

What was measured:
D(3) dopamine receptor = D(3) dopamine receptor (Homo sapiens, UniProt P35462)
[1] = target: T1, Type-1 angiotensin II receptor (Homo sapiens, UniProt P30556)
T1 sequence (P30556 whole entry): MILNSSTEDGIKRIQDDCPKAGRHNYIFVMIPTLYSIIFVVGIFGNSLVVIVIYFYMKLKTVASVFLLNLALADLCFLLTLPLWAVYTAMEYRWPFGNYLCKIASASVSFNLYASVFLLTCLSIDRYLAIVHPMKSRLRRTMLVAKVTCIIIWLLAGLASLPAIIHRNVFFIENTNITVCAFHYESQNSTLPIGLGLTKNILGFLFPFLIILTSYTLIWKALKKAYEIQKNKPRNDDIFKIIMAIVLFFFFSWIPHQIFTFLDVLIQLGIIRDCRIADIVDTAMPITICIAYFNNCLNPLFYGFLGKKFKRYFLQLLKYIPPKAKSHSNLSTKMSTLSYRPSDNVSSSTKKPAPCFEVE

[2] = target: Beta-1 adrenergic receptor (Homo sapiens, UniProt P08588); type: functional
Histamine H2 receptor = Histamine H2 receptor (Homo sapiens, UniProt P25021); type: functional, cell-based
Melanocortin receptor 3 = Melanocortin receptor 3 (Homo sapiens, UniProt P41968)
[3] = target: T2, Alpha-1A adrenergic receptor (Homo sapiens, UniProt P35348); type: functional, cell-based
T2 sequence (P35348 whole entry): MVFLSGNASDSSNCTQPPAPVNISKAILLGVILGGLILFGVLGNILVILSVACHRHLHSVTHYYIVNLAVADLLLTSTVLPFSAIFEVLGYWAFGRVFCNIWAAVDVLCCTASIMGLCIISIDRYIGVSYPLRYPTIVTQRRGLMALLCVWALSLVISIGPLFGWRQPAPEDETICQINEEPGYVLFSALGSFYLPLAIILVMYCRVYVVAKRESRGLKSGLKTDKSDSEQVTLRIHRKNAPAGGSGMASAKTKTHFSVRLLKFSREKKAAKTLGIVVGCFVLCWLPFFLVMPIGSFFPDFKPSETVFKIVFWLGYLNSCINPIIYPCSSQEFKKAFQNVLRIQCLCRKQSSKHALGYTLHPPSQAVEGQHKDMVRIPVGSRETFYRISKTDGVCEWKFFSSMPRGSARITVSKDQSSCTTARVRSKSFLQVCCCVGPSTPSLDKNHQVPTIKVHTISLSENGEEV

Adenosine receptor A1 = target: T3, Adenosine receptor A1 (Homo sapiens, UniProt P30542)
T3 sequence (P30542 whole entry): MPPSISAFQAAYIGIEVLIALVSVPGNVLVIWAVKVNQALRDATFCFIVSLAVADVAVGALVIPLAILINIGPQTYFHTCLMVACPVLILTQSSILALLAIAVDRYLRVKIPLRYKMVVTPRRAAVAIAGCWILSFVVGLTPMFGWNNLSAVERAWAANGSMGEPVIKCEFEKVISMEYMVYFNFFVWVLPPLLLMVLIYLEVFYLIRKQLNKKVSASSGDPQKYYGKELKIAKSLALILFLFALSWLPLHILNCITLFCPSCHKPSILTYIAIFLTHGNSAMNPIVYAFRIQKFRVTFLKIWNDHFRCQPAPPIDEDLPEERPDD

[4] = target: Gamma-aminobutyric acid receptor subunit alpha-1 (Rattus norvegicus, UniProt P62813); type: functional
[5] = target: Neuronal acetylcholine receptor subunit alpha-4 (Homo sapiens, UniProt P43681)
Adenosine receptor A3 = target: T4, Adenosine receptor A3 (Homo sapiens, UniProt P0DMS8)
T4 sequence (P0DMS8 whole entry): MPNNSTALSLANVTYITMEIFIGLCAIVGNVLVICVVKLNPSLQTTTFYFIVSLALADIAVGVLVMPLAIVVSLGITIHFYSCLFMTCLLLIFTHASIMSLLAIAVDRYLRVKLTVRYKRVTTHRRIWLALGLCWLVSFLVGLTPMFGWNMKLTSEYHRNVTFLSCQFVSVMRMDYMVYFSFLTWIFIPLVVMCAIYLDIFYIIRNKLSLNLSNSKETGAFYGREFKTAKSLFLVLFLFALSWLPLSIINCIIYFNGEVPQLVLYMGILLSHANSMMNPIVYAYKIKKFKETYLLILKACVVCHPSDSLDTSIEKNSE

[6] = target: T5, Alpha-2A adrenergic receptor (Homo sapiens, UniProt P08913); type: functional, cell-based
T5 sequence (P08913 whole entry): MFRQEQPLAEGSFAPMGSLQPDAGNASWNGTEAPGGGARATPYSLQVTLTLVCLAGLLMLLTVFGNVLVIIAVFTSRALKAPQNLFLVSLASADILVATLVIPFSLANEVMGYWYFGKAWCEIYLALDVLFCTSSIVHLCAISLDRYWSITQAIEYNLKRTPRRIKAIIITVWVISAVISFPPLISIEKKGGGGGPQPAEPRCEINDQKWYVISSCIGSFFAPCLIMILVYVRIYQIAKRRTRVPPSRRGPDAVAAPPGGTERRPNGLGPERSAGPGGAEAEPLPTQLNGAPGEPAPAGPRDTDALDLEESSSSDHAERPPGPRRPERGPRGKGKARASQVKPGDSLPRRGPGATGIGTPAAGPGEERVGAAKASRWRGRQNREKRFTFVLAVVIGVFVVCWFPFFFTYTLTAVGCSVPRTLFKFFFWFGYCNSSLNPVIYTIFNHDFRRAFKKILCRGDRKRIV

[7] = target: Glutamate receptor ionotropic, NMDA 1 (Rattus norvegicus, UniProt P35439)
[8] = target: T6, Muscarinic acetylcholine receptor M2 (Homo sapiens, UniProt P08172); type: functional, cell-based
T6 sequence (P08172 whole entry): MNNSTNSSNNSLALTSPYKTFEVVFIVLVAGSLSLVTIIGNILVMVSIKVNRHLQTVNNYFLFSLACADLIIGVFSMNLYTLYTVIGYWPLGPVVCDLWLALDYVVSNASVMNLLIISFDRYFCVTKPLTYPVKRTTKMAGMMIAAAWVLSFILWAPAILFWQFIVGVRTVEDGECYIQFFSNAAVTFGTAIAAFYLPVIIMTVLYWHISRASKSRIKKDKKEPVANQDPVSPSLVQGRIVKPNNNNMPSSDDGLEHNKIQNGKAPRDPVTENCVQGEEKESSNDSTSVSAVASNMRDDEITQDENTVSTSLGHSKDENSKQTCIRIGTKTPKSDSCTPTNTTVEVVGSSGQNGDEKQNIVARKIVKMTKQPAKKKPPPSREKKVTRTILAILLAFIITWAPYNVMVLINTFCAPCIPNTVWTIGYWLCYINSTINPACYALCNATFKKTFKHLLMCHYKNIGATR

Vasopressin V2 receptor = Vasopressin V2 receptor (Homo sapiens, UniProt P30518)
Note: assay procedure not described here.

Gamma-aminobutyric acid receptor subunit alpha-1, sequence (P62813 whole entry): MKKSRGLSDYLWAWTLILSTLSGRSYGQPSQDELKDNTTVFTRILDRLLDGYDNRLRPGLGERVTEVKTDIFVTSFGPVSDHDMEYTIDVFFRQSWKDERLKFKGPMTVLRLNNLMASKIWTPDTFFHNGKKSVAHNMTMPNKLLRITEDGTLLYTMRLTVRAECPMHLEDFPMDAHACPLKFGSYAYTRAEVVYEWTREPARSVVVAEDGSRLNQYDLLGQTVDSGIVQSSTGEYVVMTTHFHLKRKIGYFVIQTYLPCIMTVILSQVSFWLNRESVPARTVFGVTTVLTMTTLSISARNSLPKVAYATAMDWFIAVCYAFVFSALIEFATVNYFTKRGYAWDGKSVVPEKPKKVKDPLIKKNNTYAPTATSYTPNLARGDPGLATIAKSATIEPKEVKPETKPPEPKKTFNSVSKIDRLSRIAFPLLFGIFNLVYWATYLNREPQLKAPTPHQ
D(3) dopamine receptor, sequence (P35462 whole entry): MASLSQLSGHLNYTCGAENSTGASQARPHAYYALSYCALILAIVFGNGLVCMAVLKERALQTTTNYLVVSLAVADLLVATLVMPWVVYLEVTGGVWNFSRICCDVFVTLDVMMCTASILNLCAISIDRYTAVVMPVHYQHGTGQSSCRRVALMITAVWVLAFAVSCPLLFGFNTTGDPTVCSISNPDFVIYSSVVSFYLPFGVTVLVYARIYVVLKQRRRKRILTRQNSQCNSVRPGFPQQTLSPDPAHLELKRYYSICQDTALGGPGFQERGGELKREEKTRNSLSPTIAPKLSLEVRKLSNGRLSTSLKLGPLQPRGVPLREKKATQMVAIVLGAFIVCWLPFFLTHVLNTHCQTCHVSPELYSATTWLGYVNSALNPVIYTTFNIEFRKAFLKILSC
Vasopressin V2 receptor, sequence (P30518 whole entry): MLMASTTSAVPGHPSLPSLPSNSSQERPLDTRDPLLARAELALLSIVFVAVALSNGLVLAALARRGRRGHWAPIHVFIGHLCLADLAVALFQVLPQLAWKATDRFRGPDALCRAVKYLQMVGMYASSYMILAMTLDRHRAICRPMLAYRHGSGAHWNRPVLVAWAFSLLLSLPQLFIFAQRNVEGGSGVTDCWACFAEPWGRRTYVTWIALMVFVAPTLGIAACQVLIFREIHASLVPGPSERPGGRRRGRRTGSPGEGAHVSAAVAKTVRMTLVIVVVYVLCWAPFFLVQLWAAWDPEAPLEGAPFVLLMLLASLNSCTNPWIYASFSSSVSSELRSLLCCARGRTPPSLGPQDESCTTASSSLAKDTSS
Histamine H2 receptor, sequence (P25021 whole entry): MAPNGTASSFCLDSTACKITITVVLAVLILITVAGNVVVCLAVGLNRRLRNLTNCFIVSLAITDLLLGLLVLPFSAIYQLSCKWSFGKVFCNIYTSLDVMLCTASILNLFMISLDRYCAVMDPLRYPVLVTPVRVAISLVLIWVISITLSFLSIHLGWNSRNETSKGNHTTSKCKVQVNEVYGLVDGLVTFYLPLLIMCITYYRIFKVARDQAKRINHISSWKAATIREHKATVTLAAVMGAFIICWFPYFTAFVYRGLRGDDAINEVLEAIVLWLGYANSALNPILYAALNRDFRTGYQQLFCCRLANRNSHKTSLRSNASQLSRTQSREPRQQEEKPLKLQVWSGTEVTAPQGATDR
Beta-1 adrenergic receptor, sequence (P08588 whole entry): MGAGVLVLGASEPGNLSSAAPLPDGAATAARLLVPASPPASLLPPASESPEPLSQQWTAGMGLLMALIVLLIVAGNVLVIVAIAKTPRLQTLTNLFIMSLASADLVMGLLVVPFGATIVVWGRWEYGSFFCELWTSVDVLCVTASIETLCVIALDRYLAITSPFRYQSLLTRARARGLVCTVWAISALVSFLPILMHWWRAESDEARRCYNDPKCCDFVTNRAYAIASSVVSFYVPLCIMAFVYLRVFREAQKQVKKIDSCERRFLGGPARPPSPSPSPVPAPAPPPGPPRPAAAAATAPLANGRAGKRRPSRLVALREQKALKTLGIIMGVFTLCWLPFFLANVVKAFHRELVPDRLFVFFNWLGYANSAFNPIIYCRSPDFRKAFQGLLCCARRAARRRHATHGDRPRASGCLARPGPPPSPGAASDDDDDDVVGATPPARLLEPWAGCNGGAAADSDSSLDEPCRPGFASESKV
Melanocortin receptor 3, sequence (P41968 whole entry): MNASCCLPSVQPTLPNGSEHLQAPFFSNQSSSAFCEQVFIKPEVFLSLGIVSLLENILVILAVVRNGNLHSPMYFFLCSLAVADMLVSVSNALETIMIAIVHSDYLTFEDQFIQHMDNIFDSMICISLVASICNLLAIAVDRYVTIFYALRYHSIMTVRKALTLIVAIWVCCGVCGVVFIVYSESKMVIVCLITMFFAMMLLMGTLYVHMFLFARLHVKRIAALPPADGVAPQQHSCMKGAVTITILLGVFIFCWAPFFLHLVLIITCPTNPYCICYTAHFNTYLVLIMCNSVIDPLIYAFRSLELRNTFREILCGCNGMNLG
Neuronal acetylcholine receptor subunit alpha-4, sequence (P43681 whole entry): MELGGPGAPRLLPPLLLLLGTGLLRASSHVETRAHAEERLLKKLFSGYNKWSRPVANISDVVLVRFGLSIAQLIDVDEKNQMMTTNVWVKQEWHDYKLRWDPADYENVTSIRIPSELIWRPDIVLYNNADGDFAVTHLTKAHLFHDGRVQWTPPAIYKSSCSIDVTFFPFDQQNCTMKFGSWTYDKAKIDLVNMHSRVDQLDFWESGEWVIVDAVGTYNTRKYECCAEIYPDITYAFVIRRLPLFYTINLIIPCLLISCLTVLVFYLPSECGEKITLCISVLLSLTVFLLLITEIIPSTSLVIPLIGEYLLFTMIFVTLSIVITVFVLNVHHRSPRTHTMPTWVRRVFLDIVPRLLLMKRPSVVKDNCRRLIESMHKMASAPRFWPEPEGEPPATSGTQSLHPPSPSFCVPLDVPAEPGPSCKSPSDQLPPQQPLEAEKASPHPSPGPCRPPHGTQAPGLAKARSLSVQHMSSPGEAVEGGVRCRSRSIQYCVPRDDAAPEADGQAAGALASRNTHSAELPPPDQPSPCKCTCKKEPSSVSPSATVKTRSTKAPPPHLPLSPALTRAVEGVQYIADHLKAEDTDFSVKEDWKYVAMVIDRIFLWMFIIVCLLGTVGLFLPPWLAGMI

| Structure (SMILES) | AC50 (D(3) dopamine receptor) | AC50 [1] | AC50 [2] | AC50 (Histamine H2 receptor) | AC50 (Melanocortin receptor 3) | AC50 [3] | AC50 (Adenosine receptor A1) | AC50 [4] | AC50 [5] | AC50 (Adenosine receptor A3) | AC50 [6] | AC50 [7] | AC50 [8] | AC50 (Vasopressin V2 receptor) |
| --- | --- | --- | --- | --- | --- | --- | --- | --- | --- | --- | --- | --- | --- | --- |
| CC/C=C\C/C=C\C/C=C\C/C=C\C/C=C\CCCC(=O)OCC [ICOSAPENT ETHYL] | > 30 µM | > 30 µM | > 30 µM | > 30 µM | > 30 µM | > 30 µM | > 30 µM | > 30 µM | > 30 µM | 18 µM | > 30 µM | > 30 µM | > 30 µM | > 10 µM |
| NNC(=O)c1ccncc1 [ISONIAZID] | > 30 µM | > 30 µM | > 30 µM | > 10 µM | > 30 µM | > 30 µM | > 30 µM | > 30 µM | > 30 µM | 32.7 µM | > 30 µM | > 30 µM | > 30 µM | > 30 µM |
| COc1ccc(CN2CCN(C(c3ccc(F)cc3)c3ccc(F)cc3)CC2)c(OC)c1OC [LOMERIZINE] | 2.2 µM | > 30 µM | > 30 µM | > 30 µM | > 30 µM | > 30 µM | > 30 µM | > 30 µM | > 30 µM | 17 µM | > 30 µM | > 30 µM | 24 µM | > 30 µM |
| O=C1Nc2ccc(Cl)cc2C(c2ccccc2Cl)=NC1O (configuration not stated) [LORAZEPAM] | > 10 µM | > 30 µM | > 10 µM | > 10 µM | > 30 µM | > 30 µM | > 30 µM | 0.0074 µM | > 10 µM | > 30 µM | > 10 µM | > 10 µM | > 10 µM | > 30 µM |
| CN1CCN=C(c2ccccc2)c2cc(Cl)ccc21 [MEDAZEPAM] | > 30 µM | > 30 µM | > 30 µM | > 30 µM | > 30 µM | > 30 µM | > 30 µM | 2.1 µM | 30 µM | 15 µM | > 30 µM | > 30 µM | > 30 µM | > 30 µM |
| CC(=O)[C@H]1CC[C@H]2[C@@H]3C[C@H](C)C4=CC(=O)CC[C@]4(C)[C@H]3[C@@H](O)C[C@]12C [MEDRYSONE] | > 30 µM | > 10 µM | > 10 µM | > 10 µM | > 10 µM | > 30 µM | > 10 µM | > 10 µM | > 10 µM | > 10 µM | > 10 µM | > 10 µM | > 10 µM | > 10 µM |
| COc1ccc2cc(CCC(C)=O)ccc2c1 [NABUMETONE] | > 30 µM | > 10 µM | > 10 µM | > 30 µM | > 10 µM | > 30 µM | > 10 µM | > 10 µM | > 10 µM | > 10 µM | > 10 µM | > 10 µM | > 10 µM | > 10 µM |
| O=C(NCCO[N+](=O)[O-])c1cccnc1 [NICORANDIL] | > 30 µM | > 30 µM | > 30 µM | > 30 µM | > 30 µM | > 30 µM | > 30 µM | > 30 µM | > 30 µM | > 30 µM | > 30 µM | > 30 µM | > 30 µM | > 30 µM |
| O=c1[nH]c2ccccc2n1CCCN1CCN(C(c2ccccc2)c2ccccc2)CC1 [OXATOMIDE] | 0.13 µM | 17 µM | > 30 µM | > 30 µM | > 30 µM | > 30 µM | > 30 µM | > 30 µM | > 30 µM | 15 µM | > 30 µM | > 30 µM | 6.6 µM | > 30 µM |
| C[C@]12C/C(=C/O)C(=O)C[C@@H]1CC[C@@H]1[C@@H]2CC[C@@]2(C)[C@H]1CC[C@]2(C)O [OXYMETHOLONE] | > 30 µM | 15 µM | > 30 µM | > 30 µM | > 30 µM | > 30 µM | > 30 µM | > 30 µM | > 30 µM | 8.2 µM | > 30 µM | > 30 µM | > 30 µM | > 30 µM |
| COc1cc2[nH]c(C)c(CCN3CCN(c4ccccc4)CC3)c2cc1OC [OXYPERTINE] | > 10 µM | > 30 µM | 26 µM | > 30 µM | > 30 µM | > 30 µM | > 30 µM | > 30 µM | 27 µM | 20 µM | 7.4 µM | > 30 µM | > 30 µM | > 30 µM |
| c1ccc(C2(N3CCCCC3)CCCCC2)cc1 [PHENCYCLIDINE] | > 30 µM | > 30 µM | > 30 µM | > 30 µM | > 30 µM | > 30 µM | > 30 µM | > 30 µM | > 30 µM | > 30 µM | > 30 µM | 0.288 µM | > 30 µM | > 30 µM |
| OC[C@H]1O[C@@H](Oc2cc(O)cc(/C=C/c3ccc(O)cc3)c2)[C@H](O)[C@@H](O)[C@@H]1O [PICEID] | > 30 µM | > 30 µM | > 30 µM | > 30 µM | > 30 µM | > 30 µM | > 30 µM | > 30 µM | > 30 µM | > 30 µM | > 30 µM | > 30 µM | > 30 µM | > 30 µM |
